Assay results from patent US10513495B2, “Polymorph of pimavanserin tartrate and preparation method thereof and use of same” (SHANGHAI BEGREAT PHARMATECH, priority 2016, dated 2019).
Structures can show the parent of a compound that is named as a salt.

Test: Powder fluidity test (angle of repose)
Format: physicochemical
Conditions: for powder flowability (in words): Form III compared to existing Pimavanserin tartrate Form A, B and C; for angle of repose: powder through two funnels onto 7 cm diameter petri dish, α=arc tg(H/R), average of three measurements, ≤30 degrees good, >40 degrees very poor flowability, tartrate
Description: Powder fluidity test: the tray is a 7 cm diameter petri dish. The two glass funnels are overlapped on the iron frame. The distance between the lower funnel outlet and the Petri dish is 3.5-6.0 cm. Pimavanserin tartrate salt was added slowly from the upper funnel, and the sample was gradually accumulated on the petri dish through the buffer of the two funnels to form a cone until the highest cone was obtained. Determine the height H of the cone, measure each sample three times, take the average value, and calculate the angle of repose according to the following formula: α=arc tg(H/R) where α is the angle of repose and R is the radius of the dish
When the angle of repose of the powder is less than or equal to 30 degrees, it means the flowability of this powder is good. While in case, 40 degrees or less of the powder angle of repose, this powder can satisfy the demand for fluidity in the production process. When the angle of repose of the powder is more than 40 degrees, it means the very poor flowability of the drug powder which may cause the troubles above mentioned during the drug manufacturing process.

| SMILES | powder flowability (in words) | angle of repose |
| --- | --- | --- |
| CC(C)COc1ccc(CNC(=O)N(Cc2ccc(F)cc2)C2CCN(C)CC2)cc1 [Form III, N-(4-fluorobenzyl)-N-(1-methylpiperidin-4-yl)-N′-[4-(2-methylpropoxy)phenylmethyl]urea tartrate] | significantly improves the powder flowability | 32° |
| CC(C)COc1ccc(CNC(=O)N(Cc2ccc(F)cc2)C2CCN(C)CC2)cc1 [Form A, N-(4-fluorobenzyl)-N-(1-methylpiperidin-4-yl)-N′-[4-(2-methylpropoxy)phenylmethyl]urea tartrate] | poor | 45° |
| CC(C)COc1ccc(CNC(=O)N(Cc2ccc(F)cc2)C2CCN(C)CC2)cc1 [Form B, N-(4-fluorobenzyl)-N-(1-methylpiperidin-4-yl)-N′-[4-(2-methylpropoxy)phenylmethyl]urea tartrate] | poor | 43° |
| CC(C)COc1ccc(CNC(=O)N(Cc2ccc(F)cc2)C2CCN(C)CC2)cc1 [Form C, N-(4-fluorobenzyl)-N-(1-methylpiperidin-4-yl)-N′-[4-(2-methylpropoxy)phenylmethyl]urea tartrate] | poor | 41° |
